Our source for the inhibition and IC50 values is ChEMBL document CHEMBL1146657, “A novel 18 beta-glycyrrhetinic acid analogue as a potent and selective inhibitor of 11 beta-hydroxysteroid dehydrogenase 2” (Bioorg Med Chem Lett, 2004).

The target in assay [1] is 11-beta-hydroxysteroid dehydrogenase 1 (Rattus norvegicus) (UniProt P16232). The experiment in a line: Percent inhibition against 11-beta-hydroxysteroid dehydrogenase 1 of wistar rat liver cytosol at 10 uM was determined using [3H]cortisone.
Assay [2] deals with T1, 11-beta-hydroxysteroid dehydrogenase type 2 (Rattus norvegicus) (UniProt P50233).
T1 sequence (whole entry): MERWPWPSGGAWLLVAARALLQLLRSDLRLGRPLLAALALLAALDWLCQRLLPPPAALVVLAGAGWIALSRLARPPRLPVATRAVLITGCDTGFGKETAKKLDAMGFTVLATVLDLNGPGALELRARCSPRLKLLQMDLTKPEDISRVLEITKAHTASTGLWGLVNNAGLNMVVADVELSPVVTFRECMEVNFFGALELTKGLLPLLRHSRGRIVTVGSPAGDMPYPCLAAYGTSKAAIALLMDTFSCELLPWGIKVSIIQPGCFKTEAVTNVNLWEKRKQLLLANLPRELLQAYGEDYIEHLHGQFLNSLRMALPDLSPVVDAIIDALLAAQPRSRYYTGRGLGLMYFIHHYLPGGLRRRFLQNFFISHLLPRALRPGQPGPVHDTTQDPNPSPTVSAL
The experiment in a line: (§1) Percent inhibition against 11-beta-hydroxysteroid dehydrogenase 2 of wistar rat kidney at 10 uM was determined using [3H]cortisol.

Assay [3] has as its target T2, 11-beta-hydroxysteroid dehydrogenase type 2 (Rattus norvegicus, UniProt P50233).
T2 sequence (P50233 whole entry): T1 sequence (whole entry)
Described as §1.

Sequence of 11-beta-hydroxysteroid dehydrogenase 1 (Rattus norvegicus) (P16232 whole entry, looked up): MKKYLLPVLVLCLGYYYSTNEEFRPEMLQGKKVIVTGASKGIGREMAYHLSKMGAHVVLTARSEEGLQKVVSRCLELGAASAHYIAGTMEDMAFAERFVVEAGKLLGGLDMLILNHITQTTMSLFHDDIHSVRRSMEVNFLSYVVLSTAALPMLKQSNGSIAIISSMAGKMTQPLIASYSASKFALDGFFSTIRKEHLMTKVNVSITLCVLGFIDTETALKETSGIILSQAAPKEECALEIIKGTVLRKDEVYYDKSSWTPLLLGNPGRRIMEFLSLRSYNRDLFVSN

`CC1(C)C2CC[C@]3(C)C(C(=O)C=C4[C@@H]5C[C@@](C)(C(=O)NCCCCCO)CC[C@]5(C)CC[C@]43C)[C@@]2(C)CC[C@@H]1O` (some centres not stated): the results for the inhibition in assay [1] and in assay [2] were 88% and 98%, respectively.

In the case of `CC1(C)C2CC[C@]3(C)C(C(=O)C=C4[C@@H]5C[C@@](C)(C(=O)NCCN6CCOCC6)CC[C@]5(C)CC[C@]43C)[C@@]2(C)CC[C@@H]1O` (some centres not stated), the inhibition in assay [1] is 19%; in assay [2], 66%.

For `CCOC(=O)[C@H](C)NC(=O)[C@@]1(C)CC[C@]2(C)CC[C@]3(C)C(=CC(=O)C4[C@@]5(C)CC[C@H](O)C(C)(C)C5CC[C@]43C)[C@@H]2C1` (some centres not stated), the inhibition in assay [1] came out at 25%; in assay [2], 35%.

Regarding `CC1(C)C2CC[C@]3(C)C(C(=O)C=C4[C@@H]5C[C@@](C)(C(=O)NC6CC6)CC[C@]5(C)CC[C@]43C)[C@@]2(C)CC[C@@H]1O` (some centres not stated), the inhibition in assay [1] stood at 90%; in assay [2], 103%.

For the compound `CC1(C)C2CC[C@]3(C)C(C(=O)C=C4[C@@H]5C[C@@](C)(C(=O)NC6CCOC6=O)CC[C@]5(C)CC[C@]43C)[C@@]2(C)CC[C@@H]1O` (some centres not stated), the inhibition in assay [1] came to 71%; in assay [2] it was 25%.

For `CC1(C)C2CC[C@]3(C)C(C(=O)C=C4[C@@H]5C[C@@](C)(C(=O)NCCO)CC[C@]5(C)CC[C@]43C)[C@@]2(C)CC[C@@H]1O` (some centres not stated), the inhibition in assay [1] turned out to be 36%; in assay [2] it was 92%. Besides, in assay [3], 4 pM corresponded to half-maximal inhibition (IC50).

In the case of `CC1(C)C2CC[C@]3(C)C(C(=O)C=C4[C@@H]5C[C@@](C)(C(=O)NN6CCOCC6)CC[C@]5(C)CC[C@]43C)[C@@]2(C)CC[C@@H]1O` (some centres not stated), the inhibition in assay [1] stood at 34%; in assay [2] it was 20%.

On to `CC1(C)[C@@H](O)CC[C@]2(C)[C@H]3C(=O)C=C4[C@@H]5C[C@@](C)(C(=O)O)CC[C@]5(C)CC[C@@]4(C)[C@]3(C)CC[C@@H]12`, for which the inhibition in assay [1] stood at 85%; in assay [2], 101%.
